What follows are compounds tested against T1, Adenosine deaminase (Bos taurus, UniProt P56658) (assay: Binding affinity against calf intestine adenosine deaminase enzyme; Not Active).
T1 sequence (P56658 whole entry): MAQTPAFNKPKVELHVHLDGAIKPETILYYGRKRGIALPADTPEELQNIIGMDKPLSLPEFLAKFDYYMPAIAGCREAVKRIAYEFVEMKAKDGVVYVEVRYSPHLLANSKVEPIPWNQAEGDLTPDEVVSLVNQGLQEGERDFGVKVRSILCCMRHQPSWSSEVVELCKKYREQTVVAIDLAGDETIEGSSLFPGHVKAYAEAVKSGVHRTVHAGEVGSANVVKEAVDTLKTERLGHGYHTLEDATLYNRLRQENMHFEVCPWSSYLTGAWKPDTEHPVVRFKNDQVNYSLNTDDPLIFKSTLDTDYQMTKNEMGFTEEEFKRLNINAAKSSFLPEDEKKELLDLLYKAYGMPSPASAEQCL
In the case of `OC[C@H]1O[C@@H](n2cnc3cnccc32)[C@H](O)[C@@H]1O`, the Ki is reported as “Not Active”.

Each compound was assayed against T1, Adenosine deaminase (assay: Binding affinity against calf intestine adenosine deaminase enzyme).
Work on `Nc1ccnc2c1ncn2[C@@H]1O[C@H](CO)[C@@H](O)[C@H]1O` yielded a Ki of 660 nM.
For `CCCCCCC(C(C)O)n1cnc2c(N)nccc21` (stereo not given), the Ki was 10 nM.
With `CCCCCCC(C(C)O)n1cnc2c(N)ccnc21` (stereo not given) the Ki was 160 nM.
`Nc1nccc2c1ncn2[C@@H]1O[C@H](CO)[C@@H](O)[C@H]1O` gave a Ki of 360000 nM.
`CCCCCCC(C(C)O)n1cnc2cncnc21` (stereo not given) gave a Ki of 840 nM.
`CCCCCCC(C(C)O)n1cnc2cnccc21` (stereo not given) showed a Ki of 120 nM.
For `OC[C@H]1OC(n2cnc3cccnc32)[C@H](O)[C@@H]1O` (stereo not given in full), the Ki was 42000 nM.
`CCCCCC[C@@H]([C@@H](C)O)n1cnc2c(N)ncnc21` [EHNA] gave a Ki of 7 nM.
`OC[C@H]1O[C@@H](n2cnc3cncnc32)[C@H](O)[C@@H]1O` [NEBULARINE] showed a Ki of 15000 nM.

Source: ChEMBL document CHEMBL1122580, “Adenosine deaminase inhibitors. Synthesis of deaza analogues of erythro-9-(2-hydroxy-3-nonyl)adenine” (J Med Chem, 1984)
